Data reported in patent publication EP0928784B1, “Sertraline polymorph having improved water solubility” (TORCAN CHEMICAL Ltd, priority 1997, dated 1999).
Where a name gives a salt, the structure may show the parent alone. Read-outs that look alike come from different tables or passages of the source.

What was measured:
[1] = Solubility in aqueous fluids (qualitative, no method described); type: physicochemical
[2] = as reported in U.S. Patent 5,248,699, among Forms I-V; cited from earlier work
[3] = Dissolution rate (qualitative, no method described); type: physicochemical; details: with regard to bioavailability in pharmaceutical formulations
[4] = Stability of the crystalline form (qualitative, no method described); type: physicochemical; details: applicant's statement

solubility ([1]; prepared in applicant's laboratory according to Sysko et al., aqueous fluids) | stability [4] | solubility in aqueous fluids ([1]; as compared with Form I sertraline hydrochloride) | Structure (SMILES) | stability [2] | dissolution rate [3]
extremely insoluble | stable as reported |  | CN[C@H]1CC[C@@H](c2ccc(Cl)c(Cl)c2)c2ccccc21 [sertraline hydrochloride Form I, (1S-cis)-4-(3,4-dichlorophenyl)-1,2,3,4-tetrahydro-N-methyl-1-naphthalenamine] | greatest stability | too slow to provide adequate bioavailability
 | acceptable stability | enhanced solubility in aqueous fluids | CN[C@H]1CC[C@@H](c2ccc(Cl)c(Cl)c2)c2ccccc21 [polymorph T1, (1S-cis)-4-(3,4-dichlorophenyl)-1,2,3,4-tetrahydro-N-methyl-1-naphthalenamine] |  | 
